Measured values taken from ChEMBL document CHEMBL1201862, “PubChem BioAssay data set” (2004).
Where “and” joins values, the source holds several entries; their conditions need not be identical. Equal entries are not always repeated.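 Protocol summary: plate cells (96-well), add compound at 5 concentrations, incubate 48 h, interpolate endpoints linearly. GI50: concentration for 50% inhibition of growth.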 Calls of active or inactive are those of the source. No stated cut-off is given here; in the data, active = GI50 up to about 1.1 µM and inactive = higher.

What was measured:
Experiment in all cases: NCI tumour cell line growth inhibition, 48 h
A498 = system: A498
ACHN = system: ACHN
CCRF-CEM = system: CCRF-CEM
DU-145 = system: DU-145
HCC 2998 = system: HCC 2998
HOP-62 = system: HOP-62
IGROV-1 = system: IGROV-1
K562 = system: K562
M14 = system: M14
Malme-3M = system: Malme-3M
PC-3 = system: PC-3
RPMI-8226 = system: RPMI-8226
SF-295 = system: SF-295
SK-MEL-28 = system: SK-MEL-28
SK-MEL-2 = system: SK-MEL-2
SK-MEL-5 = system: SK-MEL-5
SN12C = system: SN12C
SR = system: SR
T47D = system: T47D
UO-31 = system: UO-31

Measured: GI50

COC(=O)C1=C(O)C(C(=O)OC)[C@]2(O)[C@H](C(=O)OC)[C@H]1C[C@@H](c1ccc(F)cc1)[C@H]2C(=O)OC (stereo not given in full)
inactive: A498 16.8 µM | ACHN 15.5 µM | CCRF-CEM 6.85 µM | DU-145 14.8 µM | HCC 2998 14.6 µM | HOP-62 22.6 µM | IGROV-1 18.8 µM | K562 9.23 µM | M14 10.4 µM | Malme-3M 12.9 µM | PC-3 12.2 µM | RPMI-8226 16.2 µM | SF-295 14.2 µM | SK-MEL-28 14.2 µM | SK-MEL-2 4.35 µM | SK-MEL-5 12.3 µM | SN12C 3.63 µM | SR 10.9 µM | T47D 22.6 µM | UO-31 14.1 µM

N=c1oc2ccc(Cl)cc2cc1C(=O)Nc1ccccc1
inactive: A498 > 100 µM | ACHN 45.8 µM | CCRF-CEM > 100 µM | DU-145 > 100 µM | HCC 2998 36.3 µM | HOP-62 21.6 µM | IGROV-1 26.1 µM | K562 27 µM | M14 > 100 µM | Malme-3M 6.5 µM | PC-3 > 100 µM | RPMI-8226 > 100 µM | SF-295 > 100 µM | SK-MEL-28 > 100 µM | SK-MEL-2 > 100 µM | SK-MEL-5 > 100 µM | SN12C > 100 µM | SR > 100 µM | T47D 17.3 µM | UO-31 > 47 µM

CC(=O)Oc1ccc2c(C)cc(=O)oc2c1
inactive: A498 > 100 µM | ACHN > 100 µM | CCRF-CEM > 100 µM | DU-145 > 100 µM | HCC 2998 > 100 µM | HOP-62 > 100 µM | IGROV-1 > 100 µM | K562 > 100 µM | M14 > 100 µM | Malme-3M > 100 µM | PC-3 > 100 µM | RPMI-8226 > 100 µM | SF-295 > 100 µM | SK-MEL-28 > 100 µM | SK-MEL-2 > 100 µM | SK-MEL-5 > 100 µM | SN12C > 100 µM | SR > 100 µM | T47D > 100 µM and 61.7 µM | UO-31 > 100 µM

CC1=C(C#N)C(C#N)(C#N)C(NN(C)C)C1 (stereo not given)
inactive: A498 20.9 µM | ACHN 13.3 µM | CCRF-CEM 3.59 µM | DU-145 15.7 µM | HCC 2998 17.2 µM | HOP-62 16.7 µM | IGROV-1 17.8 µM | K562 12.2 µM | M14 29 µM | Malme-3M 17.7 µM | PC-3 20.4 µM | RPMI-8226 10.9 µM | SF-295 24.5 µM | SK-MEL-28 23 µM | SK-MEL-2 20.2 µM | SK-MEL-5 4.49 µM | SN12C 14.1 µM | SR 25.4 µM | T47D 6.15 µM | UO-31 13.5 µM

COc1ccc(P2(=S)Oc3ccc(C(c4ccccc4)(c4ccccc4)c4ccccc4)cc3O2)cc1 (stereo not given)
inactive: A498 17.7 µM | ACHN 16.7 µM | CCRF-CEM 24.9 µM | DU-145 20.5 µM | HCC 2998 16.3 µM | HOP-62 24.6 µM | IGROV-1 17.5 µM | K562 17.8 µM | M14 14.1 µM | Malme-3M 20 µM | PC-3 13.9 µM | RPMI-8226 23 µM | SF-295 18.1 µM | SK-MEL-28 19.7 µM | SK-MEL-2 20.5 µM | SK-MEL-5 21.6 µM | SN12C 17.9 µM | SR 22.3 µM | T47D 13.7 µM | UO-31 17 µM

CCOC(=O)CCC(NC(=O)c1ccc(Nc2cnc3ccc(C(F)(F)F)cc3n2)cc1)C(=O)OCC (stereo not given)
inactive: A498 26.4 µM | ACHN 24.9 µM | CCRF-CEM > 100 µM | DU-145 > 26 µM | HCC 2998 81.1 µM | HOP-62 14.1 µM | IGROV-1 10.9 µM | K562 > 100 µM | M14 > 100 µM | Malme-3M 41 µM | PC-3 > 81.8 µM | RPMI-8226 > 22.4 µM | SF-295 31.1 µM | SK-MEL-28 > 100 µM | SK-MEL-2 > 96.4 µM | SK-MEL-5 > 64.7 µM | SN12C > 83.8 µM | SR > 100 µM | T47D 5.45 µM | UO-31 45.5 µM

CCOC(=O)CSc1nnc(CSc2nc(-c3ccccc3)c(-c3ccccc3)[nH]2)n1-c1ccccc1
inactive: A498 17.9 µM | ACHN 18.3 µM | CCRF-CEM > 54 µM | DU-145 15.4 µM | HCC 2998 19.5 µM | HOP-62 > 100 µM | IGROV-1 > 83 µM | K562 > 100 µM | M14 > 45 µM | Malme-3M > 69.2 µM | PC-3 20.7 µM | RPMI-8226 > 80.4 µM | SF-295 > 100 µM | SK-MEL-28 > 58.7 µM | SK-MEL-2 > 31.6 µM | SK-MEL-5 > 100 µM | SN12C 18.9 µM | SR 39.4 µM | T47D 26.7 µM | UO-31 18.2 µM

O=S(=O)(c1cc(Cl)ccc1Cl)n1ccnc1
inactive: A498 31 µM | ACHN 76.7 µM | CCRF-CEM 37.3 µM | DU-145 35.4 µM | HCC 2998 15.8 µM | HOP-62 48 µM | IGROV-1 41.5 µM | K562 34 µM | M14 30.3 µM | Malme-3M 31.8 µM | PC-3 47.8 µM | RPMI-8226 29 µM | SF-295 > 100 µM | SK-MEL-28 > 100 µM | SK-MEL-2 30.5 µM | SK-MEL-5 18.8 µM | SN12C 30.2 µM | SR 25.4 µM | T47D 48.3 µM | UO-31 85.5 µM
